Experimental data as given in PMC11205445, “Babesia duncani Pyruvate Kinase Inhibitor Screening and Identification of Key Active Amino Acid Residues” (Microorganisms, 2024).
Several values for one entry are separate records, joined by “and”; a condition that tells them apart may be missing. Equal values may be shown once. Read-outs that look alike come from different tables or passages of the source.

Legend:
BdPyK I [1] = molecular target: T1, BdPyK I (Babesia duncani, UniProt A0AAD9PKI2); test: BdPyK I enzyme inhibition, indirect coupled lactate dehydrogenase assay (NADH at 340 nm); type: biochemical
Text: This study aimed to investigate the effects of six small-molecule compounds on the enzyme activity of BdPyK I. These selected compounds, including PKM2 inhibitor, shikonin, tannic acid, apigenin, pioglitazone, and rosiglitazone, were initially dissolved in their respective stock concentrations using dimethyl sulfoxide (DMSO) or absolute ethanol as solvents. Subsequently, an indirect coupling lactate dehydrogenase assay was employed to evaluate the influence of these compounds on BdPyK I enzyme activity.
To conduct standard enzyme kinetics analysis, we employed a spectrophotometer (BioTek, located in Winooski, VT, USA) to monitor the degradation of NADH at 340 nm wavelength. At 37 °C, the oxidation of 1 micromole of NADH per minute was defined as one unit of PyK activity. Samples were measured continuously at 2, 7, 12, 17, 22, and 27 min. In order to investigate the influence of pH, Mg^2+, and K^+ concentrations on activity, tests were conducted within the pH range of 4.0–8.0 and Mg^2+ and K^+ concentrations ranging from 0 to 200 mM, including concentrations of 0, 25, 50, 75, 100, 125, 150, 175, and 200 mM. A reaction system with a total volume of […] was designed, comprising 50 mM Tris-HCl buffer (pH 7.5), 50 mM MgCl2, 20 mM KCl, 3 mM PEP (MilliporeSigma), 3 mM ADP (MilliporeSigma), 0.5 mM NADH (MilliporeSigma), 100 ng recombinant lactate dehydrogenase (rBdLDH), and 100 ng BdPyK I. Enzyme activity was assessed by calculating the initial rate of NADH degradation within the first 5 min and determining the relative percentage activity.
Under the conditions of 3 mM PEP and 3 mM ADP, the influence of six different small-molecule compounds on the enzymatic activity of BdPyK I was investigated across varying concentrations (0–500 μM). […] The group with the addition of DMSO was designated as the negative control group. The inhibition rate was calculated using the following formula: Inhibitor (%) = (ΔAcontrol − ΔAsample)/ΔAcontrol × 100%. All experiments were independently repeated three times to enhance the reliability and accuracy of the results. Following completion of the experiments, enzyme activity data were analyzed using GraphPad Prism 8.0 software. IC50 values for each small-molecule compound were calculated using software analysis functions. The IC50 value represents the compound concentration required to decrease enzyme activity by 50% and serves as a fundamental parameter for evaluating the inhibitory effect of compounds on enzyme activity.

B. duncani = test: In vitro growth inhibition assay of Babesia duncani (SYBR Green, 72 h); type: cell-based; conditions: for parasite growth inhibition: at approximately 40 μM
vero cells [2] = tested on: vero cells; parameters: method as in PMID 34603237; conditions: cited from earlier work
HFF cells [3] = tested on: HFF cells; parameters: method as in PMID 34603237; conditions: cited from earlier work
vero cells [4] = test: Cytotoxicity assay, vero cells; type: cell-based; conditions: CC50 Vero versus IC50 B. duncani
Text: (§1) The IC50 value represents a standard metric indicating the concentration of a drug or compound necessary to impede a biological process or inhibit cell growth. In this experiment, the IC50 values of six different compounds against B. duncani in vitro were compared with their IC50 values for BdPyK I activity. […] To contextualize these findings, the CC50 values for vero cells and HFF cells from cytotoxicity assay data were considered collectively. […] Considering the activity, selectivity, and potential toxicity, this study conducted a comprehensive evaluation of the selectivity index (SI).

HFF cells [5] = test: Cytotoxicity assay, HFF cells; type: cell-based; conditions: CC50 HFF versus IC50 B. duncani
Text: as §1

C=C(OP(=O)(O)O)C(=O)O = test: purified protein, by the assay type; conditions: other: substrate of BdPyK I, gradient concentration; pH 7.5; 37.0 °C
Description: (§2) To conduct standard enzyme kinetics analysis, we employed a spectrophotometer (BioTek, located in Winooski, VT, USA) to monitor the degradation of NADH at 340 nm wavelength. At 37 °C, the oxidation of 1 micromole of NADH per minute was defined as one unit of PyK activity. Samples were measured continuously at 2, 7, 12, 17, 22, and 27 min. In order to investigate the influence of pH, Mg^2+, and K^+ concentrations on activity, tests were conducted within the pH range of 4.0–8.0 and Mg^2+ and K^+ concentrations ranging from 0 to 200 mM, including concentrations of 0, 25, 50, 75, 100, 125, 150, 175, and 200 mM. A reaction system with a total volume of 200 mL was designed, comprising 50 mM Tris-HCl buffer (pH 7.5), 50 mM MgCl2, 20 mM KCl, 3 mM PEP (MilliporeSigma), 3 mM ADP (MilliporeSigma), 0.5 mM NADH (MilliporeSigma), 100 ng recombinant lactate dehydrogenase (rBdLDH), and 100 ng BdPyK I. Enzyme activity was assessed by calculating the initial rate of NADH degradation within the first 5 min and determining the relative percentage activity.
(§3) Subsequently, Michaelis–Menten equations for the reactants PEP and ADP were formulated based on gradient concentrations, and corresponding enzyme kinetics curves were delineated.

[6] = tested on: Nc1ncnc2c1ncn2[C@@H]1O[C@H](COP(=O)(O)OP(=O)(O)O)[C@@H](O)[C@H]1O; test: purified protein, by the assay type; conditions: other: substrate of BdPyK I, gradient concentration; pH 7.5; 37.0 °C
Description: as §2, §3

BdLDH = test: Effect of compounds on BdLDH enzyme activity (counter-screen of the coupled assay); type: biochemical, Babesia duncani; conditions: BdLDH activity evaluated separately
[7] = parameters: method as in PMID 34603237; conditions: in vivo experiments with Babesia rodents; cited from earlier work
BdPyK I [8] = molecular target: T1, BdPyK I; test: Enzyme kinetics of BdPyK I with gradient concentrations of substrates PEP and ADP; conditions: substrate of BdPyK I
Description: as §2, §3

[9] = 3 mM PEP and 3 mM ADP, compound 0–500 μM, read-out: IC50 PyK I
[10] = Babesia duncani, 72 h incubation, SYBR Green, read-out: IC50 of B. duncani growth inhibition (Figure 10)
[11] = Babesia duncani, in vitro culture, 72 h, Table 3, read-out: IC50 B. duncani

T1 sequence (A0AAD9PKI2 entry or part of it): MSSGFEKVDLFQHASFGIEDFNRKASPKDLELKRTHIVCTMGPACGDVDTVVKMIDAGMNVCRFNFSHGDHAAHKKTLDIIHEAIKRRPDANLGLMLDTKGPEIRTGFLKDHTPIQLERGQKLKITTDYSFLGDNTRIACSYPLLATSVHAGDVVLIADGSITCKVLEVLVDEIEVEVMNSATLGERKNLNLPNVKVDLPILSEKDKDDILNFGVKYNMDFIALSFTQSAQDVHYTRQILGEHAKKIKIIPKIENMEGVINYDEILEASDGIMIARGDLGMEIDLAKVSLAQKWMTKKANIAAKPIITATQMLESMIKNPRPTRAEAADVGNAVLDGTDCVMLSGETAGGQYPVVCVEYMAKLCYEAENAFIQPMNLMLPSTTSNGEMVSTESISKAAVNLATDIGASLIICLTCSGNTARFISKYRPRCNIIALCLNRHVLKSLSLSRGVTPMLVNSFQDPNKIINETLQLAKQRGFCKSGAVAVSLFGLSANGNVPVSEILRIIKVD

| Compound | IC50 (BdPyK I [1]; [9]) [µM] | CC50 (vero cells [2]) [µM] | IC50 (B. duncani; [11]) [µM] | CC50 (HFF cells [3]) [µM] | Selectivity Index (SI) Vero (vero cells [4]) | Selectivity Index (SI) HFF (HFF cells [5]) | further results |
| --- | --- | --- | --- | --- | --- | --- | --- |
| CN(CCOc1ccc(CC2SC(=O)NC2=O)cc1)c1ccccn1 (stereo not shown) [Rosiglitazone] | 7.36 | – | – | – | – | – | IC50 (B. duncani; [10]): 20.9 µM; parasite growth inhibition (B. duncani; 72 h): 80% |
| CC1=C(CSC(=S)N2CCCCC2)C(=O)c2ccccc2C1=O [PKM2 inhibitor] | 10.9 | 39.3 ± 8.32 | 0.16 ± 0.08 | 18.7 ± 1.99 | 243 | 116 | growth inhibition rate (B. duncani; at approximately 2 μM, 72 h): 85% |
| BdPyK I (Babesia duncani) | – | – | – | – | – | – | Km (C=C(OP(=O)(O)O)C(=O)O): 450 ± 104 µM; Vmax (C=C(OP(=O)(O)O)C(=O)O): 370 µM/min; kcat (C=C(OP(=O)(O)O)C(=O)O): 18.3 s⁻¹; kcat/Km (C=C(OP(=O)(O)O)C(=O)O): 40100 M⁻¹ s⁻¹; Km [6]: 310 µM and 313.6 ± 24 µM |
| Tannic acid | 0.03 | 53 ± 2.37 | – | 36.5 ± 3.88 | – | – | IC50 (BdPyK I [1]; 3 mM PEP and 3 mM ADP, read-out: IC50 on BdPyK I (Figure 9)): 0.0332 µM; IC50 (BdPyK I [1]; Table 3, read-out: IC50 PyK I Activity): 0.03 µM; IC50 (B. duncani; in vitro culture, 72 h, Table 3, read-out: IC50 B. duncani): 1.71 ± 0.33 µM; IC50 (BdLDH): 1.32 µM |
| O=c1cc(-c2ccc(O)cc2)oc2cc(O)cc(O)c12 [Apigenin] | – | 58.2 ± 2.67 | 2.81 ± 1.06 | 36 ± 2.95 | 20.64 | 12.8 | toxicity in vivo [7]: high toxicity; IC50 (BdPyK I [1]): 7.49 µM |
| CC(C)=CC[C@@H](O)C1=CC(=O)c2c(O)ccc(O)c2C1=O [Shikonin] | 16.5 | 2.34 ± 0.29 | 3.68 ± 0.48 | 0.63 ± 0.32 | 0.64 | 0.17 | – |
| Nc1ncnc2c1ncn2[C@@H]1O[C@H](COP(=O)(O)OP(=O)(O)O)[C@@H](O)[C@H]1O [ADP] | – | – | – | – | – | – | Kcat (BdPyK I [8]): 16 S^−1; Vmax (BdPyK I [8]; gradient concentration): 0.3234 ± 0.018 mM/min |
| CCc1ccc(CCOc2ccc(CC3SC(=O)NC3=O)cc2)nc1 (stereo not shown) [Pioglitazone] | 27.5 | – | – | – | – | – | IC50 (B. duncani; [10]): 15.4 µM; parasite growth inhibition (B. duncani; 72 h): 80% |
